Source: patent US12152012B2, “BRAG2 inhibitors and applications thereof” (CENTRE NATIONAL DE LA RECHERCHE SCIENTIFIQUE, priority 2018, dated 2024)

Columns and labels:
[1] = system: tubulin and actin networks in Hela cells; experiment: Immunostaining and confocal microscopy of Hela cells; type: cell-based, human; details: 50 μM, 30 min
Method: FIG. 10: Bragsin2 has no effect on the tubulin and actin networks in Hela cells. HeLa cells were treated with either DMSO (0.25%) or Bragsin2 (50 μM) for 30 min, immunostained for α-tubulin (green channel) or F-actin (magenta channel) and analysed by confocal microscopy.
Hela cells were grown in Dulbecco's modified Eagle's medium supplemented with Glutamax™ and 10% fetal bovine serum (Invitrogen). For immunofluorescence studies, cells were grown on Labtek glass slides (Nunc) and transfected for 18 to 24 h using Lipofectamine 2000 (Invitrogen), according to the supplier's instructions. […]
Immunostaining procedure was as described in (Viaud, J. et al. Structure-based discovery of an inhibitor of Arf activation by Sec7 domains through targeting of protein-protein complexes. Proc Natl Acad Sci USA 104, 10370-5 (2007)) except that secondary antibody incubation was performed for 1h using Alexa 488-conjugated goat anti-mouse (1:600) or donkey anti-sheep (1:500) IgG and Alexa 647-conjugated phalloidin (1:100). […] Images were bidirectionally recorded using an inverted Leica TCS SP8 laser-scanning confocal microscope with a 100× (N. A. 1.40) oil objective (HCX APO, Leica). Fluorochromes were detected sequentially using excitation laser lines at 488 nm (Alexa 488), 594 nm (mCherry) and 633 nm (Alexa 647). […]

[2] = target: T1, BRAG2 (activation of myristoylated Arf6) (Homo sapiens, UniProt Q6DN90); experiment: Nucleotide exchange kinetics on liposomes, activation of myristoylated Arf6; type: biochemical; details: 50 μM
T1 construct: human BRAG2^Sec7 (390-594) and BRAG2^Sec7PH (390-811); made in house
Method: FIG. 2. Bragsin is a specific inhibitor of the ArfGEF BRAG2 • a. Bragsin1 has no effect on the Sec7 domain of human ArfGEFs in solution. Nucleotide exchange kinetics were measured by fluorescence kinetics in the presence of Bragsin1 (50 μM) or DMSO using purified Sec7 domains and a truncated version of Arf1 (D17Arf1), which can be activated in solution. […] Nucleotide exchange kinetics were determined in the presence of Bragsin1 (50 μM) or DMSO with ArfGEF constructs carrying membrane-binding domains and myristoylated Arf1. […] was artificially tethered to liposomes by a C-terminal hexahistidine tag as described in (Peurois, F. et al. Biochem J 474, 1259-1272 (2017). Representative kinetic profiles are given in FIG. 15. • c. Bragsin1 inhibits the activation of myristoylated Arf6 by BRAG2 on liposomes. Experiments were carried out as in FIG. 2b. Representative kinetic profiles are given in FIG. 16. • d. Dose-response of Bragsin1 and Bragsin2 towards myristoylated Arf1 and BRAG2 on liposomes. Experiments were carried out as in FIG. 2b. • e. Silencing of BRAG2 phenocopies the effect of Bragsin2 on the TGN46 compartment. […]
The effect of Bragsin1 on the GEF efficiency of representative human ArfGEFs was evaluated by fluorescence kinetics using highly purified recombinant Arf GTPases and ArfGEFs. […]

T1 sequence (Q6DN90 512-933): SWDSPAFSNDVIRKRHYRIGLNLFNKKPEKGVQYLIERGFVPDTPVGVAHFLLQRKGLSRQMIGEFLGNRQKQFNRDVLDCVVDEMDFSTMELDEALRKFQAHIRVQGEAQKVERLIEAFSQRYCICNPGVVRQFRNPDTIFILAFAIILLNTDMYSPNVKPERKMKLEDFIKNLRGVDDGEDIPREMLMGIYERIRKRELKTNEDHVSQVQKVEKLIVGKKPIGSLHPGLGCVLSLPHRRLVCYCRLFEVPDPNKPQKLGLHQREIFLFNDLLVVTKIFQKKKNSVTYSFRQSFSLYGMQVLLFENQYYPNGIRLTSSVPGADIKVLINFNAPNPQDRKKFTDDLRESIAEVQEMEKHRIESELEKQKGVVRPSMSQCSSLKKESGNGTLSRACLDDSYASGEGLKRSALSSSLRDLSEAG

Inhibition of BRAG2-mediated activation of myristoylated Arf6 [2]	Compound	Effect on tubulin and actin networks [1]
–	COc1ccc2oc(C(F)(F)F)cc(=O)c2c1[N+](=O)[O-] [Bragsin2, 6-methoxy-5-nitro-2-(trifluoromethyl)-4H-chromen-4-one]	no effect
inhibits	Cc1ccc2oc(C(F)(F)F)cc(=O)c2c1[N+](=O)[O-] [Bragsin1, 6-methyl-5-nitro-2-(trifluoromethyl)-4H-chromen-4-one]	–
